Measurements reported in patent US7569588B2, “Biphenyl compounds useful as muscarinic receptor antagonists” (Theravance, Inc., priority 2004, dated 2009).
Values belong to the molecule of their own block, whether it stands above or below them.

What was measured:
[1] = test system: pilocarpine-evoked salivation; experiment: Inhalation guinea pig salivation assay (pilocarpine-evoked salivation); assay type: in vivo
[2] = test system: MCh-induced depressor responses; experiment: Methacholine-induced depressor responses in conscious guinea pigs; assay type: in vivo; details: guinea pig, inhalation
Description: Healthy, adult, male Sprague-Dawley guinea pigs (Harlan, Indianapolis, Ind.), weighing between 200 and 300 g were used in these studies. Under isoflurane anesthesia (to effect), animals were instrumented with common carotid artery and jugular vein catheters (PE-50 tubing). The catheters were exteriorized utilizing a subcutaneous tunnel to the subscapular area. All surgical incisions were sutured with 4-0 Ethicon Silk and the catheters locked with heparin (1000 units/mL). Each animal was administered saline (3 mL, SC) at the end of surgery as well as buprenorphine (0.05 mg/kg, IM). Animals were allowed to recover on a heating pad before being returned to their holding rooms.
Approximately 18 to 20 hours following surgery, the animals were weighed and the carotid artery catheter on each animal was connected to a transducer for recording arterial pressure. Arterial pressure and heart rate was recorded using a Biopac MP-100 Acquisition System. Animals were allowed to acclimate and stabilize for a period of 20 minutes.
Each animal was challenged with MCh (0.3 mg/kg, IV) administered through the jugular venous line and the cardiovascular response was monitored for 10 minutes. […] At 1.5 and 24 hours post-dosing, the animals were re-challenged with MCh (0.3 mg/kg, IV) and the hemodynamic response was determined. […]

[3] = target: T1, hM2 receptor (CHO-K1 cells) (Homo sapiens, UniProt P08172); experiment: Blockade of agonist-mediated (oxotremorine) inhibition of forskolin-mediated cAMP accumulation; assay type: cell-based; details: CHO-K1 cells expressing the hM2 receptor
T1 construct: expressed in transfected cells; host or cells: CHO-K1 cells
T1 sequence (P08172 1-466): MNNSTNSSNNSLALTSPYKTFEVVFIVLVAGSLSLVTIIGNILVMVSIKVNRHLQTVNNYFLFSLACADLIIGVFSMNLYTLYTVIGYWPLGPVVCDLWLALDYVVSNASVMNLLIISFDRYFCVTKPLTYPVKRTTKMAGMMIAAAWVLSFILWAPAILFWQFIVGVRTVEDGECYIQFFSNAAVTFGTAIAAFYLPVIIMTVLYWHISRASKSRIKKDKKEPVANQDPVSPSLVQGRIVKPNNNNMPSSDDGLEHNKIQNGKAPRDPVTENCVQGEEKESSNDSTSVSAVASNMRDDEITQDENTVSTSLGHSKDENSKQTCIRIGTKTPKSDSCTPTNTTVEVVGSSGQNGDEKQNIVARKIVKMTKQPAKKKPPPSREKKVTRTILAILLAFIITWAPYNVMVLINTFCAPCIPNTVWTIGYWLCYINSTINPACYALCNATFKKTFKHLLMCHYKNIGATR
Description: A. Blockade of Agonist-Mediated Inhibition of cAMP Accumulation
In this assay, the functional potency of a test compound was determined by measuring the ability of the test compound to block oxotremorine-inhibition of forskolin-mediated cAMP accumulation in CHO—K1 cells expressing the hM2 receptor.
cAMP assays were performed in a radioimmunoassay format using the Flashplate Adenylyl Cyclase Activation Assay System with ^1251-cAMP (NEN SMP004B, PerkinElmer Life Sciences Inc., Boston, Mass.), according to the manufacturer's instructions.
Cells were rinsed once with dPBS and lifted with Trypsin-EDTA solution (0.05% trypsin/0.53 mM EDTA) as described in the Cell Culture and Membrane Preparation section above. […] The cell pellet was then re-suspended in 10 mL dPBS, and the cells were counted with a Coulter Z1 Dual Particle Counter (Beckman Coulter, Fullerton, Calif.). […]
Reactions were incubated for 10 minutes at 37° C. and stopped by addition of 100 μL ice-cold detection buffer. Plates were sealed, incubated overnight at room temperature and counted the next morning on a PerkinElmer TopCount liquid scintillation counter (PerkinElmer Inc., Wellesley, Mass.). The amount of cAMP produced (pmol/well) was calculated based on the counts observed for the samples and cAMP standards, as described in the manufacturer's user manual. […]

[4] = test system: ACh-induced bronchoconstriction; experiment: Duration of bronchoprotection in guinea pig model of acetylcholine-induced bronchoconstriction; assay type: in vivo; details: inhalation, 1.5 hours post-dose
Description: Groups of six male guinea pigs (Duncan-Hartley (HsdPoc:DH) Harlan, Madison, Wisc.) weighing between 250 and 350 g were individually identified by cage cards. Throughout the study animals were allowed access to food and water ad libitum.
Test compounds were administered via inhalation over 10 minutes in a whole-body exposure dosing chamber (R&S Molds, San Carlos, Calif.). The dosing chambers were arranged so that an aerosol was simultaneously delivered to 6 individual chambers from a central manifold. Guinea pigs were exposed to an aerosol of a test compound or vehicle (WFI). […] This was measured gravimetrically by comparing pre-and post-nebulization weights of the filled nebulizer.
The bronchoprotective effects of test compounds administered via inhalation were evaluated using whole body plethysmography at 1.5, 24, 48 and 72 hours post-dose.
Forty-five minutes prior to the start of the pulmonary evaluation, each guinea pig was anesthetized with an intramuscular injection of ketamine (43.75 mg/kg), xylazine (3.50 mg/kg) and acepromazine (1.05 mg/kg). […] The depth of anesthesia was monitored and adjusted if the animal responded to pinching of its paw or if the respiration rate was greater than 100 breaths/minute. […]
Starting this program initiated the experimental protocol and data collection. […] By integrating this signal over time, a measurement offlow was calculated for each breath. […]

[5] = target: T2, hM2 receptor (CHO-K1 cell membranes) (Homo sapiens, UniProt P08172); experiment: Blockade of agonist-mediated (oxotremorine-stimulated) [35S]GTPγS binding; assay type: biochemical; details: CHO-K1 cells expressing the hM2 receptor
T2 construct: expressed in transfected cells; host or cells: membranes of CHO (CHO-K1) cells stably expressing the cloned human receptor
T2 sequence (P08172 1-466): T1 sequence (P08172 1-466)
Description: B. Blockade of Agonist-Mediated [^35S]GTPγS Binding
In a second functional assay, the functional potency of test compounds can be determined by measuring the ability of the compounds to block oxotremorine-stimulated [^35S]GTPγS binding in CHO—K1 cells expressing the hM2 receptor.
At the time of use, frozen membranes were thawed and then diluted in assay buffer with a final target tissue concentration of 5-10 μg protein per well. The membranes were briefly homogenized using a Polytron PT-2 100 tissue disrupter and then added to the assay plates.
The EC90 value (effective concentration for 90% maximal response) for stimulation of[^35S]GTPγS binding by the agonist oxotremorine was determined in each experiment.
To determine the ability of a test compound to inhibit oxotremorine-stimulated [^35S]GTPγS binding, the following was added to each well of 96 well plates: 25 μL of assay buffer with [^35S]GTPγS (0.4nM), 25 μL of oxotremorine(ECgo) and GDP (3 μM), 25 μL of diluted test compound and 25 μL CHO cell membranes expressing the hM2 receptor. […] Microscint-20 scintillation liquid (50 μL) was added to each well, and each plate was sealed and radioactivity counted on a topcounter (PerkinElmer). Data were analyzed by nonlinear regression analysis with the GraphPad Prism Software package (GraphPad Software, Inc., San Diego, Calif.) using the non-linear regression, one-site competition equation. […]

hM3 receptor (CHO cells) = target: T3, hM3 receptor (CHO cells) (Homo sapiens, UniProt P20309); experiment: Blockade of agonist-mediated calcium release via FLIPR assay; assay type: cell-based; details: CHO cells stably expressing the hM3 receptor
T3 construct: expressed in transfected cells
T3 sequence (P20309 whole entry): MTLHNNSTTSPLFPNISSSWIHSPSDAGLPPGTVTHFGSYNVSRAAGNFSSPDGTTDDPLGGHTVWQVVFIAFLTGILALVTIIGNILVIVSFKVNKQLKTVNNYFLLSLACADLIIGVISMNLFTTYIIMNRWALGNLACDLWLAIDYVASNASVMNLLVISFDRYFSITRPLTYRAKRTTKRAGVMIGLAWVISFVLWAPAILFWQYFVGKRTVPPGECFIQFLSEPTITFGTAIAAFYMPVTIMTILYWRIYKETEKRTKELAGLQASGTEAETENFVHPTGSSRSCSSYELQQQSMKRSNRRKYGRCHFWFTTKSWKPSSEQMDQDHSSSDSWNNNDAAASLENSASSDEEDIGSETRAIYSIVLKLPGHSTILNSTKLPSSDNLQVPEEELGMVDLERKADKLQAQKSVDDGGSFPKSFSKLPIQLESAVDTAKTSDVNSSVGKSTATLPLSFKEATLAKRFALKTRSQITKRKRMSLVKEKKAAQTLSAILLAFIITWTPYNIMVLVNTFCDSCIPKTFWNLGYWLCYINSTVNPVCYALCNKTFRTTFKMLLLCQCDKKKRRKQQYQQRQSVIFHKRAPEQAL
Excerpt: C. Blockade of Agonist-Mediated Calcium Release via FLIPR Assays
Muscarinic receptor subtypes (M1, M3 and M5 receptors), which couple to Gq proteins, activate the phospholipase C (PLC) pathway upon agonist binding to the receptor. As a result, activated PLC hydrolyzes phosphatyl inositol diphosphate (PIP2) to diacylglycerol (DAG) and phosphatidyl-1,4,5-triphosphate (IP3), which in turn generates calcium release from intracellular stores, i.e., endoplasmic and sarcoplasmic reticulum. […] This fluorescence event was measured in real time by the FLIPR, which detected the change in fluorescence from a monolayer of cells cloned with human M1 and M3, and chimpanzee M5 receptors. Antagonist potency was determined by the ability of antagonists to inhibit agonist-mediated increases in intracellular calcium. […]
To determine antagonist potency, the dose-dependent stimulation of intracellular Ca^2+release for oxotremorine was first determined so that antagonist potency can later be measured against oxotremorine stimulation at an EC90 concentration. […] Baseline was determined by measuring the change in fluorescence for 10 seconds prior to addition of agonist. Following agonist stimulation, the FLIPR continuously measured the change of fluorescence every 0.5 to 1 second for 1.5 minutes to capture the maximum fluorescence change. […]

SMILES: N[C@@H](Cc1ccc(O)cc1)C(=O)NCCCCCNC(=O)CCN1CCC(OC(=O)Nc2ccccc2-c2ccccc2)CC1 [Example 6, Biphenyl-2-ylcarbamic Acid 1-(2-{5-[(S)-2-Amino-3-(4-Hydroxyphenyl)propionylamino]pentylcarbamoyl}ethyl)piperidin-4-yl Ester]
apparent lung selectivity index (ratio of anti-sialagogue ID50 to bronchoprotective ID50) [1]: greater than 5

SMILES: O=C(CCN1CCC(OC(=O)Nc2ccccc2-c2ccccc2)CC1)NCCCCCNCCc1ccc(O)cc1 [Example 1, Biphenyl-2-ylcarbamic Acid 1-(2-{5-[2-(4-Hydroxyphenyl)ethylamino]pentylcarbamoyl}ethyl)piperidin-4-yl Ester]
apparent lung-selectivity index (ratio of anti-depressor ID50 to bronchoprotective ID50) [2]: greater than 5

Ki [3]: < 10 nM
SMILES: CN(CCCCCNC(=O)CCN1CCC(OC(=O)Nc2ccccc2-c2ccccc2)CC1)Cc1ccc(O)cc1 [Example 3, Biphenyl-2-ylcarbamic Acid 1-(2-{5-[(4-Hydroxybenzyl)methylamino]pentylcarbamoyl}ethyl)piperidin-4-yl Ester]
PD2(50) for ACh-induced bronchoconstriction [4]: less than 200 μg/mL

Ki [5]: < 10 nM | Ki (hM3 receptor (CHO cells)): < 10 nM
SMILES: O=C(CCN1CCC(OC(=O)Nc2ccccc2-c2ccccc2)CC1)NCCCCCNCc1ccc(O)cc1 [Example 2, Biphenyl-2-ylcarbamic Acid 1-{2-[5-(4-Hydroxybenzylamino)pentylcarbamoyl]ethyl}piperidin-4-yl Ester]
